SMILES strings stand for the structures. Values after ≈ are worked out from the molar mass of the structure shown.

Data set [1] in a line: Solubility test (1% DMSO addition, pH 6.8 artificial intestinal juice). Format: physicochemical. As to conditions: pH 6.8 artificial intestinal juice with 1% DMSO, kinetic from dmso stock, 16 hours at 25° C. As for the experimental part: The solubility of the compound of the present invention was determined under 1% DMSO addition conditions. 10 mmol/L solution of the compound was prepared with DMSO, and 6 μL of the solution of the compound of the present invention was added to 594 μL of pH 6.8 artificial intestinal juice (118 mL of 0.2 mol/L NaOH test solution and water were added to 250 mL of 0.2 mol/L potassium dihydrogen phosphate test solution to reach 1000 mL). The mixture was left standing for 16 hours at 25° C., and the mixture was vacuum-filtered. The filtrate was two-fold diluted with methanol/water=1/1 (V/V), and the compound concentration in the filtrate was measured with HPLC or LC/MS/MS by the absolute calibration method.

The nature of data set [2]: Metabolism stability test. As to conditions: human liver microsomes, 30 minutes, 37° C., NADPH, 0.5 μmol/L of test compound. Format: in vitro ADME. As for the experimental part:
Using commercially available pooled human hepatic microsomes, the compound of the present invention was reacted for a constant time, a remaining rate was calculated by comparing a reacted sample and an unreacted sample, thereby, a degree of metabolism of the compound of the present invention in liver was assessed.
A reaction was performed (oxidative reaction) at 37° C. for 0 minute or 30 minutes in the presence of 1 mmol/L NADPH in 0.2 mL of a buffer (50 mmol/L Tris-HCl pH 7.4, 150 mmol/L potassium chloride, 10 mmol/L magnesium chloride) containing 0.5 mg protein/mL of human liver microsomes. After the reaction, 50 μL of the reaction solution was added to 100 μL of a methanol/acetonitrile=1/1 (v/v) solution, mixed and centrifuged at 3000 rpm for 15 minutes. The compound of the present invention in the supernatant was quantified by LC/MS/MS, and a remaining amount of the compound of the present invention after the reaction was calculated, letting a compound amount at 0 minute reaction time to be 100%. (Result) Remaining rate was shown at 0.5 μmol/L of test compound.

In data set [3] the target is hERG channel (IKr) (Homo sapiens (Human), UniProt Q12809). As to the kind of experiment: hERG test. Conditions: pH 7.4, CHO cells expressing hERG channel, 10 μmol/L of test compound, read-out: % inhibition of tail peak current (IKr). The format is cell-based. The text has this: For the purpose of assessing risk of an electrocardiogram QT interval prolongation of the compound of the present invention, effects of the compound of the present invention on delayed rectifier K^+ current (IKr), which plays an important role in the ventricular repolarization process, was studied using CHO cells expressing human ether-a-go-go related gene (hERG) channel.
After a cell was retained at a membrane potential of −80 mV by whole cell patch clamp method using an automated patch clamp system (QPatch; Sophion BIoscience A/S), IKr induced by application of a leak potential of −50 mV followed by depolarization pulse stimulation at +20 mV for 2 seconds and, further, repolarization pulse stimulation at −50 mV for 2 seconds, was recorded. […] From the recording IKr, an absolute value of the tail peak current was measured based on the current value at the resting membrane potential using analysis software (Falster Patch; Sophion Bioscience A/S). Further, the % inhibition of tail peak current for the compound of the present invention relative to the tail peak current after application of the vehicle is calculated to assess influence of the compound of the present invention on IKr. (Result) % inhibition was shown at 10 μmol/L of test compound.

For data set [4], the target named is CYP2C19 (Homo sapiens (Human), UniProt P33261). The data set is described as follows: CYP inhibition test (mephenytoin 4'-hydroxylation). Conditions: pooled human liver microsomes. Format: in vitro ADME. From the text: (§1) Using commercially available pooled human hepatic microsome, and employing, as markers, 7-ethoxyresorufin O-deethylation (CYP1A2), tolbutamide methyl-hydroxylation (CYP2C9), mephenytoin 4′-hydroxylation (CYP2C19), dextromethorphan O-demethylation (CYP2D6), and terfenadine hydroxylation (CYP3A4) as typical substrate metabolism reactions of human main five CYP enzyme forms (CYP1A2, 2C9, 2C19, 2D6, 3A4), an inhibitory degree of each metabolite production amount by the compound of the present invention was assessed. […]
(§2) As a reaction solution, each five kinds of substrates, human liver microsomes, or compound of the present invention in 50 mmol/L Hepes buffer were added to a 96-well plate at the composition as described above, and NADPH, as a cofactor was added to initiate metabolism reactions. […] After the centrifugation at 3000 rpm for 15 minutes, resorufin (CYP1A2 metabolite) in the supernatant was quantified by a fluorescent multilabel counter or LC/MS/MS, and tolbutamide hydroxide (CYP2C9 metabolite), mephenytoin 4′ hydroxide (CYP2C19 metabolite), dextrorphan (CYP2D6 metabolite), and terfenadine alcohol (CYP3A4 metabolite) were quantified by LC/MS/MS.
(§3) Addition of only DMSO being a solvent dissolving a drug to a reaction system was adopted as a control (100%). Remaining activity (%) was calculated. […]

Data set [5] concerns the target CYP1A2 (Homo sapiens (Human), UniProt P05177). As to the kind of experiment: CYP inhibition test (7-ethoxyresorufin O-deethylation). The format is in vitro ADME. Conditions: pooled human liver microsomes.
Description: as §1, §2, §3

Data set [6] addresses T1, CYP3A4 (Homo sapiens (Human), UniProt P08684). As to the kind of experiment: CYP inhibition test (terfenadine hydroxylation). As to conditions: pooled human liver microsomes. Format: in vitro ADME.
Description: as §1, §2, §3

The target in data set [7] is CYP2D6 (Homo sapiens (Human), UniProt P10635). The data set is described as follows: CYP inhibition test (dextromethorphan O-demethylation). Format: in vitro ADME. Conditions: pooled human liver microsomes.
Description: as §1, §2, §3

The target in data set [8] is CYP2C9 (Homo sapiens (Human), UniProt P11712). The data set is described as follows: CYP inhibition test (tolbutamide methyl-hydroxylation). Format: in vitro ADME. Conditions: pooled human liver microsomes.
Description: as §1, §2, §3

In data set [9] the target is T1, CYP3A4. The data set is described as follows: CYP3A4 (MDZ) MBI test. Format: in vitro ADME. As to conditions: pooled human liver microsomes, preincubation 0 or 30 min. On the procedure:
CYP3A4 (MDZ) MBI test is a test of investigating mechanism based inhibition (MBI) potential on CYP3A4 by the enhancement of inhibitory degree of a metabolic reaction caused by the compound of the present invention. CYP3A4 inhibition was evaluated using pooled human liver microsomes by 1-hydroxylation reaction of midazolam (MDZ) as a marker reaction. […]
Pooled human liver microsomes and a solution of the compound of the present invention in K-Pi buffer (pH 7.4) as a pre-reaction solution were added to a 96-well plate at the composition of the pre-reaction. […] The plate on which each index reaction had been performed was centrifuged at 3000 rpm for 15 minutes, and thereafter 1-hydroxylated midazolam in the supernatant was quantified by LC/MS/MS.
The sample adding DMSO as a solvent to a reaction system instead of a solution dissolving the compound of the present invention was adopted as a control (100%). Remaining activity (%) was calculated at each concentration of the compound of the present invention compared to a control, and IC value was calculated by reverse-presumption by a logistic model using a concentration and an inhibition rate. […]

A short description of data set [10]: Powder solubility test. Conditions: pH 6.8, aqueous buffer, thermodynamic from solid, JP-2 solution, 37° C. The format is physicochemical. On the procedure:
Appropriate quantity of the compound of the present invention was put in suitable containers. 200 μL of JP-1 solution (water was added to 2.0 g of sodium chloride and 7.0 mL of hydrochloric acid to reach 1000 mL), 200 μL of JP-2 solution (500 mL of water was added to 500 mL of phosphate buffer (pH 6.8)) or 20 mmol/L sodium taurocholate (TCA)/JP-2 solution (JP-2 solution was added to 1.08 g of TCA to reach 100 mL) was independently added to each container. When total amount was dissolved after adding the test reagent, the compound of the present invention was added appropriately. After sealing and shaking at 37° C. for 1 hour, solution is filtrated and 100 μL of methanol is added to 100 μL of each filtrate to dilute two-fold. The dilution rate is changed as necessary. After checking that there was no bubble and deposit, the container was sealed and shaken. The compound of the present invention was measured using HPLC by absolute calibration curve method.

Data set [11] deals with recombinant human MGAT2 (Homo sapiens (Human), UniProt Q3SYC2). As to the kind of experiment: Measurement of human MGAT2 inhibitory activity. The format is biochemical. As to conditions: read-out: IC50 (concentration exhibiting 50% enzyme inhibition), Table 53. Put shortly:
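RapidFire ESI-MS read-out of the diolein/diolein-d5 peak ratio gave % inhibition, with no-enzyme and full-enzyme wells as 100% and 0%. Reactions ran 1 h at room temperature at pH 7.4 (phosphate, 2 mmol/L DTT), using Flag-tagged human MGAT2 membranes from Sf9 cells and a substrate solution of 30 μmol/L 2-oleoylglycerol and 10 μmol/L oleoyl-CoA.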

A short description of data set [12]: BA test (oral absorption). The format is in vivo. Conditions: plasma; oral vs intravenous administration, mice or SD rats. On the procedure:
Materials and Methods for Experiments to Evaluate Oral Absorption
(1) Animals: the mice or SD rats were used.
(2) Breeding conditions: the mice or SD rats were allowed to freely take solid food and sterilized tap water.
(3) Setting of dosage and grouping: Oral administration and intravenous administration were performed with a predetermined dosage. Grouping was set as below. (dosage changed per compound)
Oral administration: 1 to 30 mg/kg (n=2 to 3)
Intravenous administration: 0.5 to 10 mg/kg (n=2 to 3)
(4) Preparation of administration solution: Oral administration was performed in the form of a suspension or a solution. Intravenous administration was performed after solubilization.
(5) Routes of administration: Oral administration was performed mandatory into the stomach by oral sonde. […]
(6) Evaluation items: blood was collected over time, and the plasma concentration of the compound of the present invention was measured by LC/MS/MS.
(7) Statistical analysis: regarding the transition of the plasma concentration of the compound of the present invention, the area under the plasma concentration-time curve (AUC) was calculated by non-linear least squares program WinNonlin (registered trademark), and the bioavailability (BA) of the compound of the present invention was calculated from the AUCs of the oral administration group and intravenous administration group.

T1 sequence (P08684 whole entry): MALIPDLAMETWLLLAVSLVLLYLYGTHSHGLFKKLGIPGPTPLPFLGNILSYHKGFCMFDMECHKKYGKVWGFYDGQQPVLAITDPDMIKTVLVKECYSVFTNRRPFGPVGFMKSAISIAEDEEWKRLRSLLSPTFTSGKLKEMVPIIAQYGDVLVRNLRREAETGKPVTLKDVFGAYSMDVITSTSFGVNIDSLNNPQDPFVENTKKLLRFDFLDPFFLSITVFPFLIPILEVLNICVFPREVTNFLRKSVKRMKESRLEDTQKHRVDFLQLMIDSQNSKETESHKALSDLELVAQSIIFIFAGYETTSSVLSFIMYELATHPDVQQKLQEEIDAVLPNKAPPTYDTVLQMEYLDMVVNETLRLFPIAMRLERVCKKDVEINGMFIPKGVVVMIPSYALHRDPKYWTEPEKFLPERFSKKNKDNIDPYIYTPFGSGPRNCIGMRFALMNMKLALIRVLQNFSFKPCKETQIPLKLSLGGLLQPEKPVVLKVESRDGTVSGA
Sequence of CYP2C9 (P11712 whole entry): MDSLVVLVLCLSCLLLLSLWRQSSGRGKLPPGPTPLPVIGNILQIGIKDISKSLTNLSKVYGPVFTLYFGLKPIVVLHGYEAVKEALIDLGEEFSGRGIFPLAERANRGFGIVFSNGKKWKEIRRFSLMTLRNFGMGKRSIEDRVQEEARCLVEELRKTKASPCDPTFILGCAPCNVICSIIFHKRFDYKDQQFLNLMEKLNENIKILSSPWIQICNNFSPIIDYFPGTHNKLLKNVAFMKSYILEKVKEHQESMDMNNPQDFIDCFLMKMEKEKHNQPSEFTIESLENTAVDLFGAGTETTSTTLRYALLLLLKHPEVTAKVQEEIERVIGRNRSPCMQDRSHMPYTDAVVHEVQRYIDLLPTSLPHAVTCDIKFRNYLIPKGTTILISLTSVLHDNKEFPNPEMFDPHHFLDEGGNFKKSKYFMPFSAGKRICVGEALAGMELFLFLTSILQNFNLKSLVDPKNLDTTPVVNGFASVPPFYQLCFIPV
Sequence of CYP2C19 (P33261 whole entry): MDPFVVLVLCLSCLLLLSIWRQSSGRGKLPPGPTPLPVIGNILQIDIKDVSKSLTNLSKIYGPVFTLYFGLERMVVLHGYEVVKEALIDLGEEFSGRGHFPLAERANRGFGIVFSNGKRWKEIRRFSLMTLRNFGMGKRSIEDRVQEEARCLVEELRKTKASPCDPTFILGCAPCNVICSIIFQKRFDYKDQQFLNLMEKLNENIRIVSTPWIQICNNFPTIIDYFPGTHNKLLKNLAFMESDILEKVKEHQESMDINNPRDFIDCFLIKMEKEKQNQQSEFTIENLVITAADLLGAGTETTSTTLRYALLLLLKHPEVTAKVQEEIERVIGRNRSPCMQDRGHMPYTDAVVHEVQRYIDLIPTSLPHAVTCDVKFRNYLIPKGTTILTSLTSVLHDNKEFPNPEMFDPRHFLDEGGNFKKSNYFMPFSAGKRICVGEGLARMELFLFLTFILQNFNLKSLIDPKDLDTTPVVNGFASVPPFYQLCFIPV
Sequence of CYP2D6 (P10635 whole entry): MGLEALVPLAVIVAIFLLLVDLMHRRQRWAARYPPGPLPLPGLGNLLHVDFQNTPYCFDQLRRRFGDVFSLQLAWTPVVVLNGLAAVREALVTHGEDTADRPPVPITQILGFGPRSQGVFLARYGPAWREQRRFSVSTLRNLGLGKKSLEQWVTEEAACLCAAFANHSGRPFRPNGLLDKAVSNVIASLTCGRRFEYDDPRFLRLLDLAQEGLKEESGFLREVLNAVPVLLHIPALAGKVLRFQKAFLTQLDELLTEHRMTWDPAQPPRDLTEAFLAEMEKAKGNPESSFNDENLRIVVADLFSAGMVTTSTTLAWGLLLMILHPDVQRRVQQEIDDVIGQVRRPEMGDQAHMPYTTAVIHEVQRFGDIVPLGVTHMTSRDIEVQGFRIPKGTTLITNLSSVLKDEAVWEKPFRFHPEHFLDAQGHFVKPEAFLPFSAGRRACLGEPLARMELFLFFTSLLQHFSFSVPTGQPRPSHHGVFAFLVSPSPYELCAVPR
Sequence of recombinant human MGAT2 (Q3SYC2 whole entry): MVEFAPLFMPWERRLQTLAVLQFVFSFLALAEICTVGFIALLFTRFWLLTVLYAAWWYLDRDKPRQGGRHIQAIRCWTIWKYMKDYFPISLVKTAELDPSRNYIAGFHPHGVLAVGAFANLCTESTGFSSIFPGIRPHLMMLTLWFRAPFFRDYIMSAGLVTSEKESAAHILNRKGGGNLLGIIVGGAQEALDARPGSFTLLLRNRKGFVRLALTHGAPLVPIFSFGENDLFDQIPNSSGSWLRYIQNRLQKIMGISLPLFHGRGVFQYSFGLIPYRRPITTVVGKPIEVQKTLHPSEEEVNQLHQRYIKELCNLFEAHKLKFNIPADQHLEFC
Sequence of hERG channel (IKr) (Q12809 whole entry): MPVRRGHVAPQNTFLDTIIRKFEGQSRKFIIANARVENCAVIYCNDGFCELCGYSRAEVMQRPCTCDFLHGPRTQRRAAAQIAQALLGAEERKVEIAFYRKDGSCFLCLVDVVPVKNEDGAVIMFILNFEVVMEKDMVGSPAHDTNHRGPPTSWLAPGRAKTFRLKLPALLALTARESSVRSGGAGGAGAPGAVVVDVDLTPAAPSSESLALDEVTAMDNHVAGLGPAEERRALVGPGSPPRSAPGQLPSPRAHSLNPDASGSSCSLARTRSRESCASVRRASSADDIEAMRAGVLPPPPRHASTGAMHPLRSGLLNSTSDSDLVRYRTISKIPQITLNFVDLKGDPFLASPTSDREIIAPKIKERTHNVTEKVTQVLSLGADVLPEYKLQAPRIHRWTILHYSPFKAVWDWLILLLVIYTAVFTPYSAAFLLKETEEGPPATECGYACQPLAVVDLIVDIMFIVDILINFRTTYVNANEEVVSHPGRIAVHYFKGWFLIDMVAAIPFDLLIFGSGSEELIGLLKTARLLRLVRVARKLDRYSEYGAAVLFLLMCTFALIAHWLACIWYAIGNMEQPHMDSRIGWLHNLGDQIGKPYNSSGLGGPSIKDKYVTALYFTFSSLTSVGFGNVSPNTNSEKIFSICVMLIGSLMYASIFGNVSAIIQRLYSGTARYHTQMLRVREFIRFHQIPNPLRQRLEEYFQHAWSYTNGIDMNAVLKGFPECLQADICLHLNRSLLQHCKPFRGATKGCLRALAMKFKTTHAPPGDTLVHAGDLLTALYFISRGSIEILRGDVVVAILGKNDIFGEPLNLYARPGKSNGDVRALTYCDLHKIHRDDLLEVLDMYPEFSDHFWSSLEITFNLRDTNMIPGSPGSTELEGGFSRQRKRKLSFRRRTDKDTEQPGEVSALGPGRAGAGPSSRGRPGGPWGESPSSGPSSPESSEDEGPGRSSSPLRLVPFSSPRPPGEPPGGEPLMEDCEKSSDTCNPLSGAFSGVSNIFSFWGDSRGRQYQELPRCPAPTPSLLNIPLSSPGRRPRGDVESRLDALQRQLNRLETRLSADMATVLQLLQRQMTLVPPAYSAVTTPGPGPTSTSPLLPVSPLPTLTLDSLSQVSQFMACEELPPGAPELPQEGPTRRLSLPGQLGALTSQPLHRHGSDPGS
Sequence of CYP1A2 (P05177 whole entry): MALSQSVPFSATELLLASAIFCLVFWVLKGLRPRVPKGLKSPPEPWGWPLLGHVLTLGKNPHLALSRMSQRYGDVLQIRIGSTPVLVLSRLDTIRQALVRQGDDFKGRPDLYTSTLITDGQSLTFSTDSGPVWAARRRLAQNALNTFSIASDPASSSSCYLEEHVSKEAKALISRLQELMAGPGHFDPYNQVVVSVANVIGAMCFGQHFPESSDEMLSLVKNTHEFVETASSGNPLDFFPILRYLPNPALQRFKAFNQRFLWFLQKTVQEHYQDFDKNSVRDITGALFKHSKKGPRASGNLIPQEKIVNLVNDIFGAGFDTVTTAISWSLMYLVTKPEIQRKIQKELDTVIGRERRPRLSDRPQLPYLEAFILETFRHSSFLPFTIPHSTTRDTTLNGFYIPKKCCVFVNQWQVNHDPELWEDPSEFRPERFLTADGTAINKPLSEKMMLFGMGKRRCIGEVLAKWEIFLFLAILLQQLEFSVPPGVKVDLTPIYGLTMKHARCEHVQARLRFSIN

In data set [1], `CS(=O)(=O)CC(=O)Nc1c2c(nn1CCCOC(F)(F)F)C[C@]1(CCc3cc(OCC(F)(F)F)ccc31)NC2=O` [Compound I-253] displayed a solubility at 16 h greater than 50 µM. For the same compound, the “Remaining rate (%)” value in data set [2] stood at 76.8%. Also, the inhibition at 10 min, 10 μmol/L in [3] worked out at 6.9%.

Turning to `Cc1ccc(-n2nc3c(c2NC(=O)CS(C)(=O)=O)C(=O)N[C@@]2(CCc4cc(OCCCC(F)(F)F)ccc42)C3)nn1` [II-103], the IC50 in data set [4], in data set [5], in data set [6], in [7] and in data set [8] was greater than 20 µM each time. The solubility at 16 h in data set [1] is greater than 50 µM. Also, the “Remaining rate (%)” value in [2] is listed as 95.6%. The “CYP3A4 (MDZ) MBI judgement (Shifted IC)” value in data set [9] is listed as “Negative (a case that Shifted IC was 1.0 or less was regarded as Negative)”.

`Cc1ccc(-n2nc3c(c2NC(=O)CS(C)(=O)=O)C(=O)N[C@](C)(c2ccc(OCC(F)(F)F)cc2F)C3)nc1` [II-94] showed a solubility at 1 h in [10] of 3.4 µM (≈ 1.94 µg/mL). For the same compound, in data set [1], the solubility at 16 h was greater than 50 µM. In [2], the “Remaining rate (%)” value is 98.4%. In addition, the IC50 in data set [11] came to 0.00381 µM. In data set [12], this compound yielded a bioavailability of 73%.

Values taken from US11198695B2, “Fused ring derivative having MGAT-2 inhibitory activity” (Shionogi & Co., Ltd., priority 2017, dated 2021).
